Measurements: patent US9771375B2, “Indazole compounds useful as ketohexokinase inhibitors” (JANSSEN PHARMACEUTICA NV, priority 2010, dated 2017)
Where a name gives a salt, the structure may show the parent alone.

Target: KHK (Homo sapiens (Human), UniProt P50053)
Test: In Vitro KHK Enzyme Assay (HTMS detection of fructose-1-P)
Type: biochemical
Details: 100 μM ATP, 2 nM KHK, 60 min at 25° C., 12-point dose-response
Method: An enzymatic assay was developed to measure KHK-mediated conversion of D-fructose to Fructose-1-P (F-1-P) using High Throughput Mass Spectroscopy (HTMS) as a means of product detection. This assay served as a primary screen to evaluate the ability to inhibit KHK enzyme activity and it has been adapted to high throughput mass spectrometry (HTMS, BioTrove RapidFire™) format for higher throughput.
The compounds to be tested were dosed in 12-points concentration from 511 μM to 0.5 μM. […] The assay was carried out in 384-well plate format.

Sequence of KHK (P50053 whole entry): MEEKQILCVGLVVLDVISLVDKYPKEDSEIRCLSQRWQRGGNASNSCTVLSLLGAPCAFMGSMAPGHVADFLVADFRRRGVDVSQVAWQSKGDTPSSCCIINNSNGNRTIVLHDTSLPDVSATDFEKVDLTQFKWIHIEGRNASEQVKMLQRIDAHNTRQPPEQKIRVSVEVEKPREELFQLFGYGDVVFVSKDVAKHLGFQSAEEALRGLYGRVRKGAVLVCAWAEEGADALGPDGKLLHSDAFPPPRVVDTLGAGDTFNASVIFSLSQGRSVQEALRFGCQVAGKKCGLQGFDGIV

IC50: 3.2 µM
SMILES: Cc1nn(-c2ccccc2)c2cc(N3CCC(N4CCNCC4)CC3)ccc12 [Compound 57, 3-Methyl-1-phenyl-6-(4-piperazin-1-yl-piperidin-1-yl)-1H-indazole hydrochloride]
